According to patent US12312379B2, “Methods for producing cyclic compounds comprising N-substituted amino acid residues” (Chugai Seiyaku Kabushiki Kaisha, priority 2021, dated 2025):
≈ marks a conversion by molar mass, not a printed value. Like-named read-outs stand apart in the source and are kept apart here.

Legend:
[1] = Merck Index 14th Edition; Org. Process Res. Dev. 2007 for 2-MeTHF; cited from earlier work
[2] = cited from earlier work
[3] = water/octanol; literature or database values; cited from earlier work
[4] = Water content by Karl Fischer titration (CA-200); type: physicochemical; conditions: wet crystals
Description: The conditions for analyzing the water content by Karl Fischer titration method are shown below. • Instrument: CA-200 (manufactured by Nittoseiko Analytech Co., Ltd.) • Anolyte: Aquamicron AKX • Catholyte: Aquamicron CXU

Amount of acetone by GC = type: physicochemical; conditions: wet crystals
Experimental: The conditions for analyzing the amount of acetone by GC are shown below. • Instrument: GC-2010 (manufactured by SHIMADZU CORPORATION) • Column: DB-624 (Agilent), 0.530 mm ID×30 m, 3.00 μm • Column temperature: 50° C. (5 min)→10° C./min→90° C. (0 min)→50° C./min→240° C. (5 min) • Injector temperature: 230° C. • Detector temperature: 250° C. • Split ratio: 20/1 • Flow rate: 30 cm/sec

[5] = Powder X-ray diffraction at different humidities; type: physicochemical; conditions: 35.0 °C, relative humidity of 75% to 0%, versus Form C obtained in Example 25
Experimental: Powder X-ray diffraction of the hydrate crystals (Form C) of Compound 1 prepared in Example 26 was measured at different humidities by the following method. Measurement apparatus: SmartLab System, D/Tex Ultra detector, humidity generator HUM-SL (manufactured by Rigaku Corporation) • Anticathode: Cu • Tube voltage: 45 kV • Tube current: 200 mA • Scanning range: 5-30° • Scanning speed: 0.7°/min • Sampling width: 0.02° • Varying humidity conditions: […]

[6] = Dynamic water vapor adsorption (DVS Intrinsic); type: physicochemical; conditions: 25° C., relative humidity range of 0% to 95%, relative to the weight when the relative humidity is 0%
Experimental: The dynamic water vapor adsorption properties of the hydrate crystals (Form C) of Compound 1 prepared in Example 26 were measured by the following method. The results are shown in FIG. 10. • Measurement apparatus: DVS Intrinsic (manufactured by Surface Measurement Systems) • Temperature: 25° C. • Relative humidity (%) measurement points: • Cycle 1: 0, 10, 20, 30, 40, 50, 60, 70, 80, 90, 95, 90, 80, 70, 60, 50, 40, 30, 20, 10, 0(%); • Cycle 2: 10, 20, 30, 40, 50, 60, 70, 80, 90, 95, 90, 80, 70, 60, 50, 40, 30, 20, 10, 0(%) • Threshold: 0.001 dm/dt (%/min) • Minimum adsorption time: 10 min • Maximum adsorption time: 1440 min

[7] = Water content by Karl Fischer titration (CA-310); type: physicochemical; conditions: after acclimatization of the sample to laboratory environment
Experimental: The water content of the hydrate crystals (Form C) of Compound 1 prepared in Example 26 was measured by Karl Fischer titration method. After acclimatization of the sample to laboratory environment, the measurement was carried out using CA-310 (manufactured by Nittoseiko Analytech).

[8] = Org. Process Res. Dev. 2007 / J. Mol. Catal. A Chem. 2010

| Compound | miscibility / solubility in water (in words) [1] | log Kow values or predicted log Kow values [3] | amount that dissolves in 1 L of water ([2]; Merck Index 14th Edition) [g] | other results |
| --- | --- | --- | --- | --- |
| CC1CCCO1 (stereo not drawn) [Compound 2-MeTHF, 2-methyltetrahydrofuran] | not miscible with water | 1.35 | – | amount that dissolves in 1 L of water [2, 8]: 140 g; water solubility ([2]; room temperature (e.g. 25° C.)): 150 mg/mL (≈ 1740 mM) |
| C[S+](C)[O-] [DMSO, dimethyl sulfoxide] | soluble in water | −0.31 | – | water solubility ([2]; ChemIDplus Advanced (NIH)): 1000 mg/mL (≈ 12800 mM) |
| CC#N [acetonitrile] | miscible with water | −0.34 | – | – |
| COc1ccccc1 [anisole] | – | 2.11 | – | – |
| COC(=O)OC [dimethyl carbonate] | – | 0.23 | 139 | amount that dissolves in 1 L of water [2, 8]: 139 g |
| CCOC(C)=O [ethyl acetate] | – | 0.73 | 100 | – |
| CCCCCCC [heptane] | insoluble in water | 4.66 | – | – |
| CC(=O)OC(C)C [isopropyl acetate] | – | 1.02 | 43 | – |
| (5S,8S,11S,15S,18S,23aS,29S,35S,37aS)-8-((S)-sec-butyl)-18-cyclopentyl-29-(3,5-difluoro-4-(trifluoromethyl)phenethyl)-36-ethyl-11-isobutyl-N,N,5,6,12,16,19,33-octamethyl-35-(4-methylbenzyl)-4,7,10,13,17,20,23,28,31,34,37-undecaoxotetratriacontahydro-2H,4H-spiro[azeto[2,1-u]pyrrolo[2,1-i][1,4,7,10,13,16,19,22,25,28,31]undecaazacyclotetratriacontin-21,1′-cyclopentane]-15-carboxamide | – | – | – | water content [4]: 17.5%; acetone content (Amount of acetone by GC): 3.7% |
| (5S,8S,11S,15S,18S,23aS,29S,35S,37aS)-8-((S)-sec-butyl)-18-cyclopentyl-29-(3,5-difluoro-4-(trifluoromethyl)phenethyl)-36-ethyl-11-isobutyl-N,N,5,6,12,16,19,33-octamethyl-35-(4-methylbenzyl)-4,7,10,13,17,20,23,28,31,34,37-undecaoxotetratriacontahydro-2H,4H-spiro[azeto[2,1-u]pyrrolo[2,1-i][1,4,7,10,13,16,19,22,25,28,31]undecaazacyclotetratriacontin-21,1′-cyclopentane]-15-carboxamide [hydrate crystals (Form C) of Compound 1] | – | – | – | shift in 2θ values [5]: ≤ 0.2 °; weight change as the hydration number changes [6]: ≤ 3.3 % weight; water content [7]: 6.50 wt % |
